Assays:
Format in all cases: in vivo
[1] = system: Euschistus heros; test: Activity against Euschistus heros (neotropical brown stink bug), soybean leaves, N2 nymphs; conditions: 120 h, application rate 200 ppm, 5 days after infestation, read-out: effect in at least one of the two categories (mortality or growth inhibition)
Description: Example B3: Activity Against Euschistus heros (Neotropical Brown Stink Bug)
Soybean leaves on agar in 24-well microtiter plates were sprayed with aqueous test solutions prepared from 10′000 ppm DMSO stock solutions. After drying the leaves were infested with N2 nymphs. The samples were assessed for mortality and growth inhibition in comparison to untreated samples 5 days after infestation.

[2] = system: Chilo suppressalis; test: Activity against Chilo suppressalis (striped rice stemborer), artificial diet, L2 larvae; conditions: 144 h, application rate 200 ppm, 6 days after infestation, read-out: control in at least one of the three categories (mortality, anti-feedant effect, or growth inhibition)
Description: Example B1: Activity Against Chilo suppressalis (Striped Rice Stemborer)
24-well microtiter plates with artificial diet were treated with aqueous test solutions prepared from 10′000 ppm DMSO stock solutions by pipetting. After drying, the plates were infested with L2 larvae (6-8 per well). The samples were assessed for mortality, anti-feeding effect, and growth inhibition in comparison to untreated samples 6 days after infestation. Control of Chilo suppressalis by a test sample is given when at least one of the categories mortality, anti-feedant effect, and growth inhibition is higher than the untreated sample.

[3] = system: Diabrotica balteata; test: Activity against Diabrotica balteata (corn root worm), maize sprouts, L2 larvae; conditions: 96 h, application rate 200 ppm, 4 days after infestation, read-out: control in at least one of the two categories (mortality or growth inhibition)
Description: Example B2: Activity Against Diabrotica Balteata (Corn Root Worm)
Maize sprouts placed onto an agar layer in 24-well microtiter plates were treated with aqueous test solutions prepared from 10′000 ppm DMSO stock solutions by spraying. After drying, the plates were infested with L2 larvae (6 to 10 per well). The samples were assessed for mortality and growth inhibition in comparison to untreated samples 4 days after infestation.

[4] = system: Spodoptera littoralis; test: Activity against Spodoptera littoralis (Egyptian cotton leaf worm), cotton leaf discs, L1 larvae; conditions: foliar, 72 h, application rate 200 ppm, 3 days after infestation, read-out: control in at least one of the three categories (mortality, anti-feedant effect, or growth inhibition)
Description: Example B8: Activity Against Spodoptera littoralis (Egyptian Cotton Leaf Worm)
Cotton leaf discs were placed onto agar in 24-well microtiter plates and sprayed with aqueous test solutions prepared from 10′000 ppm DMSO stock solutions. After drying the leaf discs were infested with five L1 larvae. The samples were assessed for mortality, anti-feeding effect, and growth inhibition in comparison to untreated samples 3 days after infestation. Control of Spodoptera littoralis by a test sample is given when at least one of the categories mortality, anti-feedant effect, and growth inhibition is higher than the untreated sample.

[5] = system: Myzus persicae; test: Activity against Myzus persicae (green peach aphid), feeding/contact activity; conditions: 144 h, application rate 200 ppm, 6 days after infestation
Description: Example B5: Activity Against Myzus persicae (Green Peach Aphid). Feeding/Contact Activity
Sunflower leaf discs were placed onto agar in a 24-well microtiter plate and sprayed with aqueous test solutions prepared from 10′000 ppm DMSO stock solutions. After drying, the leaf discs were infested with an aphid population of mixed ages. The samples were assessed for mortality 6 days after infestation.

[6] = system: Plutella xylostella; test: Activity against Plutella xylostella (diamond back moth), artificial diet, eggs; conditions: 192 h, application rate 200 ppm, 8 days after infestation, read-out: control in at least one of the two categories (mortality or growth inhibition)
Description: Example B7: Activity Against Plutella xylostella (Diamond Back Moth)
24-well microtiter plates with artificial diet were treated with aqueous test solutions prepared from 10′000 ppm DMSO stock solutions by pipetting. After drying, Plutella eggs were pipetted through a plastic stencil onto a gel blotting paper and the plate was closed with it. The samples were assessed for mortality and growth inhibition in comparison to untreated samples 8 days after infestation.

[7] = system: Myzus persicae; test: Activity against Myzus persicae (green peach aphid), intrinsic activity; conditions: 120 h, test rate 12 ppm, 5 days after infestation
Description: Example B6: Activity Against Myzus persicae (Green Peach Aphid). Intrinsic Activity
Test compounds prepared from 10′000 ppm DMSO stock solutions were applied by pipette into 24-well microtiter plates and mixed with sucrose solution. The plates were closed with a stretched Parafilm. A plastic stencil with 24 holes was placed onto the plate and infested pea seedlings were placed directly on the Parafilm. The infested plate was closed with a gel blotting paper and another plastic stencil and then turned upside down. The samples were assessed for mortality 5 days after infestation.

C[C@H](NC(=O)c1cc(C(F)(F)F)cc(S(=O)(=O)C(F)(F)F)c1)c1ncnn1-c1ccc(=O)n(C)n1 [P8, N-[(1S)-1-[2-(1-methyl-6-oxo-pyridazin-3-yl)-1,2,4-triazol-3-yl]ethyl]-3-(trifluoromethyl)-5-(trifluoromethylsulfonyl) benzamide]
≥ 80%: percent effect (mortality or growth inhibition) at 200 ppm [1] | percent control (mortality, anti-feedant effect or growth inhibition) at 200 ppm [2] | percent control (mortality or growth inhibition) at 200 ppm [3] | percent control (mortality, anti-feedant effect or growth inhibition) at 200 ppm [4] | mortality at 200 ppm [5] | percent control (mortality or growth inhibition) at 200 ppm [6] | mortality at 12 ppm [7]

CC(NC(=O)c1cc(Cl)cc(OC(F)(F)F)c1)c1nccnc1-c1ccc(=O)n(C)n1 (centres unmarked) [P11, 3-chloro-N-[1-[3-(1-methyl-6-oxopyridazin-3-yl)pyrazin-2-yl]ethyl]-5-(trifluoromethoxy) benzamide]
≥ 80%: percent effect (mortality or growth inhibition) at 200 ppm [1] | percent control (mortality, anti-feedant effect or growth inhibition) at 200 ppm [2] | percent control (mortality or growth inhibition) at 200 ppm [3] | percent control (mortality, anti-feedant effect or growth inhibition) at 200 ppm [4] | mortality at 200 ppm [5] | percent control (mortality or growth inhibition) at 200 ppm [6] | mortality at 12 ppm [7]

CC(NC(=O)c1cc(OC(F)F)cc(C(F)(F)F)c1)c1nccnc1-c1ccc(=O)n(C)n1 (centres unmarked) [P14, 3-(difluoromethoxy)-N-[1-[3-(1-methyl-6-oxo-pyridazin-3-yl)pyrazin-2-yl]ethyl]-5-(trifluoromethyl)benzamide]
≥ 80%: percent effect (mortality or growth inhibition) at 200 ppm [1] | percent control (mortality, anti-feedant effect or growth inhibition) at 200 ppm [2] | percent control (mortality or growth inhibition) at 200 ppm [3] | percent control (mortality, anti-feedant effect or growth inhibition) at 200 ppm [4] | mortality at 200 ppm [5] | percent control (mortality or growth inhibition) at 200 ppm [6] | mortality at 12 ppm [7]

CCn1nc(-n2ncnc2[C@H](C)NC(=O)c2cc(Cl)cc(C(F)(F)F)c2)ccc1=O [P16, 3-chloro-N-[(1S)-1-[2-(1-ethyl-6-oxo-pyridazin-3-yl)-1,2,4-triazol-3-yl]ethy]-5-(trifluoromethyl)benzamide]
≥ 80%: percent effect (mortality or growth inhibition) at 200 ppm [1] | percent control (mortality, anti-feedant effect or growth inhibition) at 200 ppm [2] | percent control (mortality or growth inhibition) at 200 ppm [3] | percent control (mortality, anti-feedant effect or growth inhibition) at 200 ppm [4] | mortality at 200 ppm [5] | percent control (mortality or growth inhibition) at 200 ppm [6] | mortality at 12 ppm [7]

C[C@H](NC(=O)c1cc(Cl)cc(S(=O)(=O)C(F)(F)F)c1)c1ncnn1-c1ccc(=O)n(C)n1 [P20, 3-chloro-N-[(1S)-1-[2-(1-methyl-6-oxo-pyridazin-3-yl)-1,2,4-triazol-3-yl]ethyl]-5-(trifluoromethylsulfonyl) benzamide]
≥ 80%: percent effect (mortality or growth inhibition) at 200 ppm [1] | percent control (mortality, anti-feedant effect or growth inhibition) at 200 ppm [2] | percent control (mortality or growth inhibition) at 200 ppm [3] | percent control (mortality, anti-feedant effect or growth inhibition) at 200 ppm [4] | mortality at 200 ppm [5] | percent control (mortality or growth inhibition) at 200 ppm [6] | mortality at 12 ppm [7]

C[C@@H](c1ncnn1C1=NN(C)C(=O)CC1)N(C)C(=O)c1cc(Cl)cc(C(F)(F)F)c1 [P23, 3-chloro-N-methyl-N-[(1S)-1-[2-(1-methyl-6-oxo-4,5-dihydropyridazin-3-yl)-1,2,4-triazol-3-yl]ethyl]-5-(trifluoromethyl)benzamide]
≥ 80%: percent effect (mortality or growth inhibition) at 200 ppm [1] | percent control (mortality, anti-feedant effect or growth inhibition) at 200 ppm [2] | percent control (mortality or growth inhibition) at 200 ppm [3] | percent control (mortality, anti-feedant effect or growth inhibition) at 200 ppm [4] | mortality at 200 ppm [5] | percent control (mortality or growth inhibition) at 200 ppm [6] | mortality at 12 ppm [7]

C[C@H](NC(=O)c1cc(Cl)cc(OC(F)(F)F)c1)c1ncnn1-c1ccc(=O)n(C)n1 [P26, 3-chloro-N-[(1S)-1-[2-(1-methyl-6-oxo-pyridazin-3-yl)-1,2,4-triazol-3-yl]ethyl]-5-(trifluoromethoxy)benzamide]
≥ 80%: percent effect (mortality or growth inhibition) at 200 ppm [1] | percent control (mortality, anti-feedant effect or growth inhibition) at 200 ppm [2] | percent control (mortality or growth inhibition) at 200 ppm [3] | percent control (mortality, anti-feedant effect or growth inhibition) at 200 ppm [4] | mortality at 200 ppm [5] | percent control (mortality or growth inhibition) at 200 ppm [6] | mortality at 12 ppm [7]

C[C@H](NC(=O)c1cc(Cl)cc(Br)c1)c1ncnn1-c1ccc(=O)n(C)n1 [P27, 3-bromo-5-chloro-N-[(1S)-1-[2-(1-methyl-6-oxo-pyridazin-3-yl)-1,2,4-triazol-3-yl]ethyl]benzamide]
≥ 80%: percent effect (mortality or growth inhibition) at 200 ppm [1] | percent control (mortality, anti-feedant effect or growth inhibition) at 200 ppm [2] | percent control (mortality or growth inhibition) at 200 ppm [3] | percent control (mortality, anti-feedant effect or growth inhibition) at 200 ppm [4] | mortality at 200 ppm [5] | percent control (mortality or growth inhibition) at 200 ppm [6] | mortality at 12 ppm [7]

C[C@H](NC(=O)c1cc(Cl)cc(I)c1)c1ncnn1-c1ccc(=O)n(C)n1 [P28, 3-chloro-5-iodo-N-[(1S)-1-[2-(1-methyl-6-oxo-pyridazin-3-yl)-1,2,4-triazol-3-yl]ethyl]benzamide]
≥ 80%: percent effect (mortality or growth inhibition) at 200 ppm [1] | percent control (mortality, anti-feedant effect or growth inhibition) at 200 ppm [2] | percent control (mortality or growth inhibition) at 200 ppm [3] | percent control (mortality, anti-feedant effect or growth inhibition) at 200 ppm [4] | mortality at 200 ppm [5] | percent control (mortality or growth inhibition) at 200 ppm [6] | mortality at 12 ppm [7]

C[C@H](NC(=O)c1cc(Br)cc(Br)c1)c1ncnn1-c1ccc(=O)n(C)n1 [P29, 3,5-dibromo-N-[(1S)-1-[2-(1-methyl-6-oxo-pyridazin-3-yl)-1,2,4-triazol-3-yl]ethyl]benzamide]
≥ 80%: percent effect (mortality or growth inhibition) at 200 ppm [1] | percent control (mortality, anti-feedant effect or growth inhibition) at 200 ppm [2] | percent control (mortality or growth inhibition) at 200 ppm [3] | percent control (mortality, anti-feedant effect or growth inhibition) at 200 ppm [4] | mortality at 200 ppm [5] | percent control (mortality or growth inhibition) at 200 ppm [6] | mortality at 12 ppm [7]

C[C@H](NC(=O)c1cc(Br)cc(I)c1)c1ncnn1-c1ccc(=O)n(C)n1 [P30, 3-bromo-5-iodo-N-[(1S)-1-[2-(1-methyl-6-oxo-pyridazin-3-yl)-1,2,4-triazol-3-yl]ethyl]benzamide]
≥ 80%: percent effect (mortality or growth inhibition) at 200 ppm [1] | percent control (mortality, anti-feedant effect or growth inhibition) at 200 ppm [2] | percent control (mortality or growth inhibition) at 200 ppm [3] | percent control (mortality, anti-feedant effect or growth inhibition) at 200 ppm [4] | mortality at 200 ppm [5] | percent control (mortality or growth inhibition) at 200 ppm [6] | mortality at 12 ppm [7]

Source: patent US20250042875A1, “PESTICIDALLY ACTIVE PYRIDAZINONE COMPOUNDS” (SYNGENTA CROP PROTECTION AG, priority 2021, published 2025)
